Results as given in BindingDB's records for patent US11344546 (Recurium Ip Holding, 2022).
pKd: −log10 of the molar value.

Molecular target: Apoptosis regulator Bcl-2 (Homo sapiens, UniProt P10415)
Experiment: Binding Assay
Description: Table 1: Binding to Bcl-2 proteins Bcl-2, and Bcl-XL was assessed using the Bcl2scan platform: T7 phage strains displaying BCL2 proteins were grown in parallel in 24-well blocks in an E. coli host derived from the BL21 strain. E. coli were grown to log-phase and infected with T7 phage from a frozen stock (multiplicity of infection=0.4) and incubated with shaking at 32° C. until lysis (90-150 minutes). The lysates were centrifuged (5,000×g) and filtered (0.2 μm) to remove cell debris. […] The liganded beads were blocked with excess biotin and washed with blocking buffer (SeaBlock (Pierce), 1% BSA, 0.05% Tween 20, 1 mM DTT) to remove unbound ligand and to reduce non-specific phage binding. […] Test compounds were prepared as 100× stocks in 100% DMSO. Kds were determined using an 11-point 3-fold compound dilution series with one DMSO control point. […] The compounds were then diluted directly into the assays such that the final concentration of DMSO was 0.9%. All reactions performed in polypropylene 384-well plates. Each was a final volume of 0.02 ml.

Apoptosis regulator Bcl-2, sequence (P10415 whole entry): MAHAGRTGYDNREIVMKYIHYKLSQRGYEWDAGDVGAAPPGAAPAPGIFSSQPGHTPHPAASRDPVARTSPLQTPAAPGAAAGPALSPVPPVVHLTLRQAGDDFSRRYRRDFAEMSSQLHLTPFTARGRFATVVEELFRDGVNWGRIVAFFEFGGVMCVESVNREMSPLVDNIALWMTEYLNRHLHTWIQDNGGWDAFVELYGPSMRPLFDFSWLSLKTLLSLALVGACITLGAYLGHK

CCC12CC(C3=C(CN4CCN(c5ccc(C(=O)NS(=O)(=O)c6ccc(OCC7(F)CCOCC7)c([N+](=O)O)c6)c(Oc6cnc7[nH]ccc7c6)c5)CC4)CCC(C)(C)C3)(C1)C2 [US11344546, Example 26]
pKd: > 8.00
